The values below come from US20220017877A1, “BILIRUBIN OXIDASE ACTIVITY IMPROVING METHOD, AND BILIRUBIN OXIDASE PRODUCT” (OZEKI CORPORATION, priority 2018, published 2022).

The target in the assay is T1, recombinant BOD (bilirubin oxidase) derived from Myrothecium verrucaria MT-1 (Albifimbria verrucaria, UniProt Q12737).
T1 construct: made in house; host or cells: Aspergillus sp
T1 sequence (Q12737 39-572): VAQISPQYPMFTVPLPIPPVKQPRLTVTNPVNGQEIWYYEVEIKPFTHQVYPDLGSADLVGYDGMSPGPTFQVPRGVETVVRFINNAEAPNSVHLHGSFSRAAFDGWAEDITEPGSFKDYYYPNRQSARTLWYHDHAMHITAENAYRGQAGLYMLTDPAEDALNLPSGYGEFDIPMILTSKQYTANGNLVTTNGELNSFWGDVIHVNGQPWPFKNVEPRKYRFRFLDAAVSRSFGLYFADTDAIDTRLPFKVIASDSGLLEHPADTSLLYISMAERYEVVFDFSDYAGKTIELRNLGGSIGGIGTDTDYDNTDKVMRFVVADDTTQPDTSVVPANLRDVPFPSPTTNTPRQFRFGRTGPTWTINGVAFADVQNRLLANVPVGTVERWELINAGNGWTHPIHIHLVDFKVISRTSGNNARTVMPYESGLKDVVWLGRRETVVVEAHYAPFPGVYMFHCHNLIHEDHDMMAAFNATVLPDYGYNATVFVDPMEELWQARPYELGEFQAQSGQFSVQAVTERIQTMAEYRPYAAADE
In words: BOD activity after leaving the BOD solution with an activity improving agent or comparative substance at 30° C. in a deoxygenated atmosphere (Test Example 1). The format is biochemical. The note with it: relative to Day 0, additive concentration as in Table 1; for Activity (%) Day 47: left 47 days at 30° C. On the procedure:
A BOD solution, which contains: a BOD; and the present activity improving agent or a comparative substance, was left in an environment at a temperature of 30° C. in a deoxygenated atmosphere for a certain period of time. After the BOD solution was left as above, improvement of the BOD activity by the present activity improving method was evaluated by measurement of the BOD activity.
In Test Example 1, a BOD gene derived from a Myrothecium verrucaria MT-1 (GenBank accession number: D12579.1) was introduced into an Aspergillus sp., and then a recombinant BOD (hereinafter, also referred to simply as “BOD”) expressed in the Aspergillus sp. was purified by using a well-known technique and then used as the BOD. The BOD gene derived from the Myrothecium verrucaria MT-1 was codon-optimized in accordance with a gene sequence of the Aspergillus sp., and then introduced into the Aspergillus sp. Further, the BOD thus purified was dissolved in a 50 mM glycine-KOH (pH 8.5) buffer so that the concentration of the BOD became 1.0 mg/mL. Then, a resultant solution was used as a BOD enzyme solution.
The enzymatic activity of the BOD was measured as follows. To 1780 μL of a 50 mM potassium phosphate buffer (pH 6.5), 200 μL of a 20 mM ABTS substrate solution was added, so that a mixed solution (1980 μL) was prepared. This mixed solution was incubated for 1 min at 37° C. Thereafter, 20 μL of a solution containing the BOD (specifically, a BOD solution for evaluation, which will be described later) was added to the mixed solution, and a resultant mixed solution (2 mL) was incubated at 37° C. While the mixed solution was incubated, the absorbance of the mixed solution at a wavelength of 436 nm was measured immediately after that addition of the BOD solution for evaluation (at 0 seconds) and thereafter every 20 seconds. On the basis of (i) the absorbance of the mixed solution at a wavelength of 436 nm immediately after the addition of the BOD solution for evaluation and (ii) the absorbance of the mixed solution at a wavelength of 436 nm after a lapse of 1 minute from the addition of the BOD solution for evaluation, calculation was carried out for obtaining an increase rate per minute of the absorbance of the mixed solution at a wavelength of 436 nm after the addition of the BOD solution for evaluation. The BOD activity (unit) in the BOD solution for evaluation was calculated from the increase rate. In the present specification, the amount of enzyme for oxidizing 1 μmol of ABTS per minute was defined as one unit.
A specific test method of Test Example 1 is as follows. To a BOD enzyme solution containing a BOD, one of the above-described present activity improving agents was added, so that a BOD solution (which is the BOD solution according to an embodiment of the present invention) was prepared. Further, one of the above-described comparative substances was added to the BOD enzyme solution, so that another BOD solution was prepared. In addition, still another BOD solution was prepared by adding, to the BOD enzyme solution, distilled water in place of the activity improving agent or the comparative substance, so that a control (denoted as Without additive in Tables 1 to 3) was prepared. The final concentration of the activity improving agent or the comparative substance in each of the above BOD solutions was shown in “mM” or “percentage (%)” (amount (g) of the activity improving agent or the comparative substance relative to 100 mL of the BOD solution) in Table 1.
Thereafter, one of these BOD solutions and a deoxygenating agent (Anaero Pack manufactured by Mitsubishi Gas Chemical Company, Inc.) were included in one container. Then, the container was sealed, so that a BOD container was prepared. The BOD container was left in an environment at a temperature of 30° C. in a deoxygenated atmosphere for 47 days (Table 2) or 14 days (Table 3). […]

On to `O=C1O[C@H]([C@@H](O)CO)C(O)=C1O` [L-ascorbic acid], for which the “Activity (%) Day 47” value stood at 151%.

As to `O=c1[nH]c(=O)c2[nH]c(=O)[nH]c2[nH]1` [Uric acid, uric acid], the “Activity (%) Day 47” value amounted to 155%. In addition, the “Activity (%) Day 14” value (left 14 days at 30° C.) was found to be 156%.
